Measurements from patent US9884063B2, “Amido-substituted azole compounds” (Bayer Pharma Aktiengesellschaft, priority 2014, dated 2018).

What was measured:
[1] = molecular target: T1, TNKS2 (Homo sapiens, UniProt Q9H2K2); assay: Modified TNKS2 Assay 3 (BPS kit #80578, biotin-NAD+, 96 well); type: biochemical; details: human TNKS2, BPS kit #80578, 96 well
T1 sequence (Q9H2K2 1-1166): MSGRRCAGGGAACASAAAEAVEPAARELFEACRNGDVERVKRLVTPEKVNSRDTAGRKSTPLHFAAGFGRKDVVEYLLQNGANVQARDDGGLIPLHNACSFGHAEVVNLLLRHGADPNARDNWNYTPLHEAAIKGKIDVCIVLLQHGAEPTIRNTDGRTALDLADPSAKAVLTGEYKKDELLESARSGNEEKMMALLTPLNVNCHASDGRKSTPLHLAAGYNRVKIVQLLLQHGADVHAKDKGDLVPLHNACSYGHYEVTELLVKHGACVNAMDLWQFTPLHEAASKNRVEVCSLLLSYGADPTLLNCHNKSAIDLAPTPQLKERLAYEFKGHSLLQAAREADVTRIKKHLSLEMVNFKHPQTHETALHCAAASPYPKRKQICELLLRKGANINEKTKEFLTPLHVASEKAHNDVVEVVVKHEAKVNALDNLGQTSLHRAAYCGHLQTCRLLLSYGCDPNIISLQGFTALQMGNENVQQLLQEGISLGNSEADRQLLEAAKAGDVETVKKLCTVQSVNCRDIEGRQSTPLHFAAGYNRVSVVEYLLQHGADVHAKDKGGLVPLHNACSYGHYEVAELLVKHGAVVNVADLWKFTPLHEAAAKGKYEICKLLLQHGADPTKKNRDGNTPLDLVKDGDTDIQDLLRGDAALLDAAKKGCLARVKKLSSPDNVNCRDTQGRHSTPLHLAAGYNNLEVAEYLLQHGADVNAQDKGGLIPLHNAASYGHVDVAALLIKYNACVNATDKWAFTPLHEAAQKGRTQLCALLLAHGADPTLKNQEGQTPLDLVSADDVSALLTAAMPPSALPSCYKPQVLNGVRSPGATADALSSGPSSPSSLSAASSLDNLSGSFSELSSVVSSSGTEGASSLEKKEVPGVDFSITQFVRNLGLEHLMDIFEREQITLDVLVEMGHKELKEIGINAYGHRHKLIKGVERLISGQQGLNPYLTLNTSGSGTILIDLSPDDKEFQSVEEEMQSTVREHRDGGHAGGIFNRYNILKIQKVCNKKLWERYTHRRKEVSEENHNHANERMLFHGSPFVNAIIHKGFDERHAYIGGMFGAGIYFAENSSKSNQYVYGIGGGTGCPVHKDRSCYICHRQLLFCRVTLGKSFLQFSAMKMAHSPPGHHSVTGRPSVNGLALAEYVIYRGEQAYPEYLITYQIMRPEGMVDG
Experimental: (§1) The potency of the compounds against human TNKS2 according to the invention was assessed using a commercially available biotin/streptavidin binding assay kits from BPS Bioscience, San Diego, USA (Catalog #80578 for TNKS2). The incorporation of a biotin-labeled NAD+ during the […] catalyzed ribosylation of a suitable protein substrate was detected using with a streptavidin-HRP coupled chemi-luminescent readout. The intensity of the readout signal is proportional to the incorporated NAD^+. Inhibition of TNKS2 leads to a decreased incorporation of NAD^+ and consequently to a lower readout signal intensity in the corresponding TNKS2 assays. The concentration of a test compound that inhibits the enzyme activity by 50% (corresponds to half of the normed readout signal intensity) is reported as IC50. The assay conducted in a 96 well MTP format according to the manufacturer's protocol and using a BMG Pherastar MTP reader [BMG-Labtech, Offenburg, Germany].

[2] = tested on: wildtype Wnt signaling cascade; assay: HEK293 TOP Assay (Super TopFlash luciferase reporter, Wnt-3a stimulated); type: cell-based; details: Homo sapiens, HEK293, 16 h, HEK293 TOP reporter cell line, Wnt-3a at EC50, 16 hours incubation, compound dilution series 50 μM to 15 nM
Summary of the method: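 Compounds (50 μM down to 15 nM, 3.16-fold steps, in CAFTY buffer pH 7.4, 2 mM Ca2+, 0.01% BSA) tested in parallel on TOP and FOP HEK293 reporter lines to define selective wildtype Wnt inhibition. Pathway driven by recombinant human Wnt-3a applied at 2500–5 ng/ml in two-fold dilutions.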

[3] = molecular target: T2, TNKS1 (Homo sapiens, UniProt O95271); assay: Modified TNKS1 Assay 3 (BPS kit #80573, biotin-NAD+, 96 well); type: biochemical; details: human TNKS1, BPS kit #80573, 96 well
T2 sequence (O95271 1-1327): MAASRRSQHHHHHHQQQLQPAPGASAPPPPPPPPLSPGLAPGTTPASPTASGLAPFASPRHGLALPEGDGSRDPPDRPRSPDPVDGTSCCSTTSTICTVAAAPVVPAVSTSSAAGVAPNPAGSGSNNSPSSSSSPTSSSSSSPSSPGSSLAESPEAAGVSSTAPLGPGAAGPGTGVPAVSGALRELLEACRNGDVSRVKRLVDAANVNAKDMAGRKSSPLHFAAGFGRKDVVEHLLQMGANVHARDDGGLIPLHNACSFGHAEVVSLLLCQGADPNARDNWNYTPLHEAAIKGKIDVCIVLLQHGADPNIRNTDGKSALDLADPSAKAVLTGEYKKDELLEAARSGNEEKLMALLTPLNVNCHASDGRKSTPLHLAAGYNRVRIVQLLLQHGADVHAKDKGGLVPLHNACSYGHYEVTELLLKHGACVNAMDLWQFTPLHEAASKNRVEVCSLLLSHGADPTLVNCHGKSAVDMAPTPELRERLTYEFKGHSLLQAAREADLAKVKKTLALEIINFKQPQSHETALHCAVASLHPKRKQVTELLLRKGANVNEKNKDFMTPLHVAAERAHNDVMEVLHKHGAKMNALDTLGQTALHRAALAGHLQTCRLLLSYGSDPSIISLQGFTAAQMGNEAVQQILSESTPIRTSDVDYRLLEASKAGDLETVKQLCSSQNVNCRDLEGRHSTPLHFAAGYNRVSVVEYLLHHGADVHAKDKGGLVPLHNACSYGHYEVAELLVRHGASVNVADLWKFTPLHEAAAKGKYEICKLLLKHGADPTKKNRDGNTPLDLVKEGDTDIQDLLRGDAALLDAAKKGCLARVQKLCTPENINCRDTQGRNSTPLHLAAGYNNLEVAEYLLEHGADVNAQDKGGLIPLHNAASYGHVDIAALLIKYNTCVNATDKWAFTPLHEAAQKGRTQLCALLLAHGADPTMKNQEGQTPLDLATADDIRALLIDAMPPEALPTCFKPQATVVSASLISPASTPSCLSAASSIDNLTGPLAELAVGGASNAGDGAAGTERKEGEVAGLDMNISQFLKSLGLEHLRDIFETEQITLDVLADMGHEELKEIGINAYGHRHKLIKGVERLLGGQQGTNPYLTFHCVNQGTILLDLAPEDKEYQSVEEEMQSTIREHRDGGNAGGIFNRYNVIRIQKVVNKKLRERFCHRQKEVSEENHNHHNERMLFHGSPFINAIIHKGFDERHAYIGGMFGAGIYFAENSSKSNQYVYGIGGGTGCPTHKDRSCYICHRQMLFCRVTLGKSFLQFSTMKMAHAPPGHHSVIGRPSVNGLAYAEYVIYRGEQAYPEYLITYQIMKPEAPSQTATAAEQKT
Experimental: as §1, with “against human TNKS1 according to” for “against human TNKS2 according to”, “USA (Catalog #80573 for TNKS1).” for “USA (Catalog #80578 for TNKS2).”, “#80573 for TNKS1). The incorporation” for “#80578 for TNKS2). The incorporation”, “Inhibition of TNKS1 leads to” for “Inhibition of TNKS2 leads to”, “the corresponding TNKS1 assays. The” for “the corresponding TNKS2 assays. The”, “The assay was conducted in” for “The assay conducted in”

[4] = tested on: HEK293 FOP control reporter cell line; assay: HEK293 FOP Assay (FOP control vector luciferase reporter); type: cell-based; details: Homo sapiens; HEK293 FOP control reporter cell line, 16 hours incubation, compound dilution series 50 μM to 15 nM
Summary of the method: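 Compound series 50 μM to 15 nM, 3.16-fold steps, were diluted in CAFTY buffer (pH 7.4, 2 mM Ca2+, 0.01% BSA) and tested alongside the TOP reporter line. Human Wnt-3a was added at 2500–5 ng/ml in two-fold steps. The control HEK293 line stably holds an FOP vector whose TCF elements are randomized and non-functional.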

Row | SMILES | IC50 [1] | IC50 [2] | IC50 [3] | IC50 [4]
1 | CNC(=O)c1nc[nH]c1C(=O)Nc1ccc(NC(=O)c2ccc(F)cc2Cl)c(F)c1 [Example 72, N^5-{4-[(2-chloro-4-fluorobenzoyl)amino]-3-fluorophenyl}-N^4-methyl-1H-imidazole-4,5-dicarboxamide] | 60 nM | 490 nM | – | –
2 | CC(C)(CNC(=O)c1[nH]cnc1C(=O)Nc1ccc(NC(=O)c2ccc(F)cc2Cl)cc1)N1CCCCC1 [Example 159, N^4-{4-[(2-chloro-4-fluorobenzoyl)amino]phenyl}-N^5-[2-methyl-2-(piperidin-1-yl)propyl]-1H-imidazole-4,5-dicarboxamide] | 2 nM | 90 nM | – | –
3 | O=C(Nc1ccc(NC(=O)c2nc[nH]c2C(=O)NCCCN2CCCCC2)cc1)c1ccc(F)cc1Cl [Example 297, N^4-{4-[(2-chloro-4-fluorobenzoyl)amino]phenyl}-N^5-[3-(piperidin-1-yl)propyl]-1H-imidazole-4,5-dicarboxamide] | – | 1050 nM | > 500 nM | 22500 nM
4 | CN(C)CCCCCNC(=O)c1nc[nH]c1C(=O)Nc1ccc(NC(=O)c2ccc(F)cc2Cl)cc1 [Example 378, N^5-{4-[(2-chloro-4-fluorobenzoyl)amino]phenyl}-N^4-[5-(dimethylamino)pentyl]-1H-imidazole-4,5-dicarboxamide] | – | 230 nM | 60 nM | 27000 nM
5 | CC1CCCCN1CCCNC(=O)c1nc[nH]c1C(=O)Nc1ccc(NC(=O)c2ccc(F)cc2Cl)cc1 (stereo not shown) [Example 386, N^5-{4-[(2-chloro-4-fluorobenzoyl)amino]phenyl}-N^4-[3-(2-methylpiperidin-1-yl)propyl]-1H-imidazole-4,5-dicarboxamide] | – | 460 nM | 60 nM | 15000 nM
6 | CCN(CC)CCCNC(=O)c1nc[nH]c1C(=O)Nc1ccc(NC(=O)c2ccc(F)cc2Cl)cc1 [Example 388, N^5-{4-[(2-chloro-4-fluorobenzoyl)amino]phenyl}-N^4-[3-(diethylamino)propyl]-1H-imidazole-4,5-dicarboxamide] | – | 440 nM | 30 nM | 17000 nM
7 | CN(C)CC(C)(C)CNC(=O)c1nc[nH]c1C(=O)Nc1ccc(NC(=O)c2ccc(F)cc2Cl)cc1 [Example 396, N^5-{4-[(2-chloro-4-fluorobenzoyl)amino]phenyl}-N^4-[3-(dimethylamino)-2,2-dimethylpropyl]-1H-imidazole-4,5-dicarboxamide] | – | 340 nM | 180 nM | 25000 nM
8 | CC1CCCC(C)N1CCNC(=O)c1nc[nH]c1C(=O)Nc1ccc(NC(=O)c2ccc(F)cc2Cl)cc1 (stereo not shown) [Example 401, N^5-{4-[(2-chloro-4-fluorobenzoyl)amino]phenyl}-N^4-[2-(2,6-dimethylpiperidin-1-yl)ethyl]-1H-imidazole-4,5-dicarboxamide] | – | 330 nM | 180 nM | 21000 nM
9 | O=C(Nc1ccc(NC(=O)c2[nH]cnc2C(=O)NCCCCCN2CCCC2)cc1)c1ccc(F)cc1Cl [Example 406, N^5-{4-[(2-chloro-4-fluorobenzoyl)amino]phenyl}-N^4-[5-(pyrrolidin-1-yl)pentyl]-1H-imidazole-4,5-dicarboxamide] | – | 350 nM | 70 nM | 26000 nM
10 | CCN1CCC(CNC(=O)c2nc[nH]c2C(=O)Nc2ccc(NC(=O)c3ccc(F)cc3Cl)cc2)CC1 [Example 409, N^5-{4-[(2-chloro-4-fluorobenzoyl)amino]phenyl}-N^4-[(1-ethylpiperidin-4-yl)methyl]-1H-imidazole-4,5-dicarboxamide] | – | 190 nM | 80 nM | 32000 nM
11 | CN1CCCCC1CNC(=O)c1nc[nH]c1C(=O)Nc1ccc(NC(=O)c2ccc(F)cc2Cl)cc1 (stereo not shown) [Example 410, N^5-{4-[(2-chloro-4-fluorobenzoyl)amino]phenyl}-N^4-[(1-methylpiperidin-2-yl)methyl]-1H-imidazole-4,5-dicarboxamide] | – | 110 nM | 90 nM | 18000 nM
12 | CN1CCC(NC(=O)c2nc[nH]c2C(=O)Nc2ccc(NC(=O)c3ccc(F)cc3Cl)cc2)CC1 [Example 414, N^5-{4-[(2-chloro-4-fluorobenzoyl)amino]phenyl}-N^4-(1-methylpiperidin-4-yl)-1H-imidazole-4,5-dicarboxamide] | – | 270 nM | 50 nM | 33000 nM
